Source: PMC314469, “Protein Interaction Networks by Proteome Peptide Scanning” (PLoS Biology, 2004)

Tested on: Myo5 SH3 domain
Experiment: SPOT analysis of cellulose-bound peptides (WISE), Myo5 SH3 domain (Dataset S4)
Format: binding, Saccharomyces cerevisiae
Conditions: for The normalized value in BLU units: Myo5 SH3 domain
[1] = SPOT analysis of cellulose-bound peptides probed with Myo5 SH3 domain, normalized value
[2] = SPOT analysis of cellulose-bound 14-mer yeast proteome peptides, normalized value, mean where the peptide was synthesized more than once
[3] = SPOT analysis of membrane-bound peptides, normalized value (see methods)
[4] = SPOT analysis of membrane-synthesized peptides probed with Myo5 SH3 domain, normalized value

Row | Sequence | The normalized value in BLU units [2] [BLU] | The normalized value in BLU units [3] [BLU] | also measured
1 | ELLCFLSPGKPSKG |  |  | The normalized value in BLU units (SPOT analysis, Myo5 SH3) [1]: 57.4 BLU
2 | YEKALHFPAGPKST |  |  | The normalized value in BLU units (SPOT analysis, Myo5 SH3) [1]: 147.4 BLU
3 | GLIAHQGPQFPVMG | 238.5 |  | 
4 | VTSVKLHPNLPIVF | 136.6 |  | 
5 | KLPQLPPPPPPPPP |  |  | The normalized value in BLU units (SPOT analysis, Myo5 SH3) [1]: 54143.7 BLU
6 | GLDLKWEPSTPQRK |  | 164.4 | 
7 | LEFPKDYPLSPPKL |  | 134.8 | 
8 | SPSTHAAPVTPIIS |  |  | The normalized value in BLU units (SPOT analysis, Myo5 SH3) [1]: 53.3 BLU
9 | NEFAKFAPDLPVLK |  | 135.1 | 
10 | PKSPKAYPKLPDIQ |  |  | The normalized value in BLU units (SPOT analysis, Myo5 SH3) [4]: 357.2 BLU
11 | ELRDLDIPLVPSPK |  |  | The normalized value in BLU units (SPOT analysis, Myo5 SH3) [1]: 75.3 BLU
12 | DNELKDEPEPPNLI |  |  | The normalized value in BLU units (SPOT analysis, Myo5 SH3) [4]: 179.2 BLU
13 | VNTPRSVPNSPNDG |  | 65.0 | 
14 | INNNKMRPHLPPLS |  | 1004.0 | 
15 | FEYSKYRPLTPSSE |  |  | The normalized value in BLU units (SPOT analysis, Myo5 SH3) [4]: 143.0 BLU
16 | NSFSKNDPNFPILK |  | 160.5 | 
17 | DFNKFERPNIPVEE | 212.3 |  | 
18 | CLRARNGPVPPVHI |  | 207.8 | 
19 | NAPERAVPILPPRN | 740.9 |  | 
20 | IEITHSEPAIPYRE | 114.3 |  | 
21 | HAWDMRSPHRPFYS |  |  | The normalized value in BLU units (SPOT analysis, Myo5 SH3) [1]: 822.1 BLU
22 | TKKRKLGPKAPNPL |  | 693.8 | 
23 | WFILKLFPHEPIEG |  | 1272.7 | 
24 | AKTNKNVPVLPTPG |  |  | The normalized value in BLU units (SPOT analysis, Myo5 SH3) [4]: 130.3 BLU

Row | Sequence | The normalized value in BLU units [2] [BLU] | The normalized value in BLU units [3] [BLU] | also measured
25 | NPFPFPIPEIPSTQ | 86.5 |  | 
26 | FARTLKIPNEPSPG | 145.7 |  | 
27 | PLAPLPPPPPPSVA |  |  | The normalized value in BLU units (SPOT analysis, Myo5 SH3) [1]: 4747.6 BLU
28 | NITEKSPPKSPKHK |  | 292.3 | 
29 | GLNLKWEPSTPQRN |  | 104.8 | 
30 | LKDNRLLPSWPKRG |  |  | The normalized value in BLU units (SPOT analysis, Myo5 SH3) [4]: 518.0 BLU
31 | TSWARDNPSKPDIA |  | 81.6 | 
32 | PEGVFCIPAPPPNV | 82.5 |  | 
33 | DLLGLSTPQSPTNS |  |  | The normalized value in BLU units (SPOT analysis, Myo5 SH3) [1]: 91.9 BLU
34 | PIGSRYNPNLPVTE |  | 187.4 | 
35 | SLFPLKTPISPGTS |  |  | The normalized value in BLU units (SPOT analysis, Myo5 SH3) [1]: 239.2 BLU
36 | QVYEKTIPLFPPEI |  |  | The normalized value in BLU units (SPOT analysis, Myo5 SH3) [4]: 153.0 BLU
37 | PFYTMPDPANPKYS |  |  | The normalized value in BLU units (SPOT analysis, Myo5 SH3) [1]: 145.1 BLU
38 | ALKSLSNPSSPWQQ |  |  | The normalized value in BLU units (SPOT analysis, Myo5 SH3) [1]: 30.3 BLU
39 | NPGSMSMPGVPTSM |  |  | The normalized value in BLU units (SPOT analysis, Myo5 SH3) [1]: 189.7 BLU
40 | REGPKSCPRGPLCP |  | 188.5 | 
41 | IATMYPIPAYPDLL |  |  | The normalized value in BLU units (SPOT analysis, Myo5 SH3) [1]: 96.9 BLU
42 | TPMDFPEPVGPLAI | 175.4 |  | 
43 | PQTMRQAPKRPDAD |  |  | The normalized value in BLU units (SPOT analysis, Myo5 SH3) [4]: 3257.1 BLU
44 | ALLIKTVPGFPLLE |  |  | The normalized value in BLU units (SPOT analysis, Myo5 SH3) [4]: 144.3 BLU
45 | GNNSRNIPPPPPPP |  |  | The normalized value in BLU units (SPOT analysis, Myo5 SH3) [4]: 10334.3 BLU
46 | KDEVKLHPPEPKDL |  | 163.7 | 
47 | TEDGFVIPALPAAV | 290.4 |  | 
48 | PPQTHQSPPPPPQQ |  |  | The normalized value in BLU units (SPOT analysis, Myo5 SH3) [1]: 222.2 BLU

Row | Sequence | The normalized value in BLU units [2] [BLU] | The normalized value in BLU units [3] [BLU] | also measured
49 | VAPNRIPPKVPVIN |  | 61069.9 | 
50 | SPSDFNKPDLPELI |  |  | The normalized value in BLU units (SPOT analysis, Myo5 SH3) [1]: 316.9 BLU
51 | VPIIFEIPFNPIYK | 214.9 |  | 
52 | SENGRLTPGLPRSY | 169.8 |  | 
53 | AKIDKVSPEDPWVL |  |  | The normalized value in BLU units (SPOT analysis, Myo5 SH3) [4]: 248.0 BLU
54 | LPKLKSNPSVPHLH | 193.1 |  | 
55 | RPPSHSAPYIPRSS | 47448.0 |  | 
56 | SSKIRPTPRKPSRM |  |  | The normalized value in BLU units (SPOT analysis, Myo5 SH3) [4]: 673.3 BLU
57 | TWKMHLWPVSPPQL | 224.0 |  | 
58 | KKKKKNGPGAPQGY |  | 328.8 | 
59 | EKESRHYPIKPPSP |  | 179.9 | 
60 | SPKFLNSPDLPERT | 182.8 |  | 
61 | VFYHRPAPKPPVTK |  | 9049.3 | 
62 | HLLGKEGPSAPNPS |  | 124.5 | 
63 | VPSAFTAPPVPTKK | 358.2 |  | 
64 | KLDPLGEPFDPNKH | 275.7 |  | 
65 | YEGPRGAPGMPEML |  | 166.5 | 
66 | EETEMLAPKLPEEN |  |  | The normalized value in BLU units (SPOT analysis, Myo5 SH3) [1]: 81.6 BLU
67 | LALLMTDPDAPSRT | 177.5 |  | 
68 | VRSKRLFPVRPMAT |  | 503.5 | 
69 | KLNCLQIPHLPPSV |  |  | The normalized value in BLU units (SPOT analysis, Myo5 SH3) [1]: 349.8 BLU
70 | PEPTMGSPDAPPLV | 106.8 |  | 
71 | LVPSKAIPPLPQLD | 558.2 |  | 
72 | ILFERILPILPVES | 339.9 |  | 
